Data reported in patent US12065430B2, “Indazole compound or salt thereof” (TAIHO PHARMACEUTICAL CO., LTD., priority 2018, dated 2024).

The compounds below were run against G12C K-Ras4B (1-169) (Homo sapiens (Human), UniProt P01116, G12C) (assay: Test of compounds on whether to bind to KRASG12C (LC-MS compound binding rate)). Details: final compound concentration of 2 μM, 1 μM protein, 25° C. for 2 hours.
Protocol: Test compounds were prepared in the form of a 10 mM DMSO solution.
K-Ras4B (1-169) and G12C K-Ras4B (1-169) proteins were mixed and diluted with a buffer (1×TBS, 0.1 mM TCEP) to prepare individual 1 μM protein solutions. A 10 mM test compound was diluted tenfold with DMSO to make a 1 mM solution, and then diluted fivefold with DMSO to make a 200 μM solution. The 200 μM solution was further diluted fivefold to make a 40 μM solution. When the final compound concentration was 10 μM, 1 μL of a 200 μM test compound was added to 19 μL of a 1 μM protein solution. When the final compound concentration was 2 μM, 1 μL of a 40 μM test compound was added to 19 μL of a 1 μM protein solution. The mixtures were stored in an incubator at 25° C. for 2 hours, and 80 μL of a 1×TBS solution containing 0.2% formic acid was added thereto to end the reaction, followed by LC-MS measurement. LC-MS measurement was performed using Xevo G2-S Q-Tof manufactured by Waters, and reverse-phase chromatography was performed with a desalting column. A mass spectrum of positive ions was obtained by electrospray. For a mass spectrum, a spectrum of a polyvalent ion was collectively converted to a molecular weight by using OpenLynx software by the MaxEnt technique, and a compound binding rate was obtained from the ratio of a signal intensity that corresponds to the molecular weight of a protein to a signal intensity that corresponds to the molecular weight of a compound binding to the protein.
By obtaining the compound binding rate for K-Ras4B (1-169) and the compound binding rate for G12C K-Ras4B (1-169) at the same time, information of the selectivity for G12C K-Ras4B (1-169) was obtained at the same time.
The test compounds were measured at their final compound concentration of 2 μM. […] Almost no compounds of the present invention binded to K-Ras4B (1-169). The “binding rate” (%) for each of K-Ras4B (1-169) and G12C K-Ras4B (1-169) refers to the ratio of the signal intensity of binded forms to the sum of the signal intensity of non-binded forms and the signal intensity of binded forms.
C=CC(=O)N1CC(NC(=O)c2cc(CNc3n[nH]c4cc(Cl)c(C(C)(C)C)cc34)nn2C)C1 [Example 9, N-(1-acryloylazetidin-3-yl)-3-(((5-(tert-butyl)-6-chloro-1H-indazol-3-yl)amino)methyl)-1-methyl-1H-pyrazole-5-carboxamide] was tested, and the “binding rate for G12C K-Ras4B (1-169)” value was “D (a binding rate of 20% or more and less than 40% is rated “D,”)”.
C=CC(=O)N1C[C@H](NC(=O)c2c(C)nc(CNc3n[nH]c4cc(Cl)c(C(C)(C)C)cc34)n2C)[C@@H](O)C1 [Example 62, N-((3S,4S)-1-acryloyl-4-hydroxypyrrolidin-3-yl)-2-(((5-(tert-butyl)-6-chloro-1H-indazol-3-yl)amino)methyl)-1,4-dimethyl-1H-imidazole-5-carboxamide] was tested, and the “binding rate for G12C K-Ras4B (1-169)” value was “A (a binding rate of 80% or more is rated “A,”)”.
In the case of C=CC(=O)N1CC(NC(=O)c2cnc(C(C)Nc3n[nH]c4cc(Cl)c(C(C)(C)C)cc34)n2C)C1 (centres unmarked) [Example 4, N-(1-acryloylazetidin-3-yl)-2-(1-((5-(tert-butyl)-6-chloro-1H-indazol-3-yl)amino)ethyl)-1-methyl-1H-imidazole-5-carboxamide], the “binding rate for G12C K-Ras4B (1-169)” value is reported as “C (a binding rate of 40% or more and less than 60% is rated “C,”)”.
With C=CC(=O)N1CC(NC(=O)c2ccc(CNc3n[nH]c4cc(Cl)c(C(C)(C)C)cc34)o2)C1 [Reference Example 2, N-(1-acryloylazetidin-3-yl)-5-(((5-(tert-butyl)-6-chloro-1H-indazol-3-yl)amino)methyl)furan-2-carboxamide, reference compound] the “binding rate for G12C K-Ras4B (1-169)” value was “E (a binding rate of less than 20% is rated “E.”)”.
For C=CC(=O)N1CC(NC(=O)c2cnc(CNc3n[nH]c4cc(Cl)c(C(C)(C)C)cc34)n2Cc2cc(OC)cc(OC)c2)C1 [Example 88, N-(1-acryloylazetidin-3-yl)-2-(((5-(tert-butyl)-6-chloro-1H-indazol-3-yl)amino)methyl)-1-(3,5-dimethoxybenzyl)-1H-imidazole-5-carboxamide], the “binding rate for G12C K-Ras4B (1-169)” value was “B (a binding rate of 60% or more and less than 80% is rated “B,”)”.
In the case of C=CC(=O)N1CC(NC(=O)c2c(Cl)nc(CNc3n[nH]c4cc(Cl)c(C(C)(C)C)cc34)n2[C@@H]2CCN(CC(F)F)[C@H]2C)C1 [Example 125, N-(1-acryloylazetidin-3-yl)-2-(((5-(tert-butyl)-6-chloro-1H-indazol-3-yl)amino)methyl)-4-chloro-1-((2S,3R)-1-(2,2-difluoroethyl)-2-methylpyrrolidin-3-yl)-1H-imidazole-5-carboxamide], the “binding rate for G12C K-Ras4B (1-169)” value is reported as “A (a binding rate of 80% or more is rated “A,”)”.
C=CC(=O)N1CCN(C(=O)c2c(C)nc(CNc3n[nH]c4cc(Cl)c(C(C)(C)C)cc34)n2C)CC1 [Example 50, 1-(4-(2-(((5-(Tert-butyl)-6-chloro-1H-indazol-3-yl)amino)methyl)-1,4-dimethyl-1H-imidazole-5-carbonyl)piperazin-1-yl)prop-2-en-1-one] was tested, and the “binding rate for G12C K-Ras4B (1-169)” value was “C (a binding rate of 40% or more and less than 60% is rated “C,”)”.
In the case of C=CC(=O)N1CC(NC(=O)c2c(Cl)c(CNc3n[nH]c4cc(Cl)c(C(C)(C)C)cc34)nn2C)C1 [Example 6, N-(1-acryloylazetidin-3-yl)-3-(((5-(tert-butyl)-6-chloro-1H-indazol-3-yl)amino)methyl)-4-chloro-1-methyl-1H-pyrazole-5-carboxamide], the “binding rate for G12C K-Ras4B (1-169)” value is reported as “B (a binding rate of 60% or more and less than 80% is rated “B,”)”.
For C=CC(=O)N1CC(NC(=O)c2c(C)nc(CNc3n[nH]c4cc(Cl)c(C(C)(C)C)cc34)n2CCN(C)C)C1 [Example 16, N-(1-acryloylazetidin-3-yl)-2-(((5-(tert-butyl)-6-chloro-1H-indazol-3-yl)amino)methyl)-1-(2-(dimethylamino)ethyl)-4-methyl-1H-imidazole-5-carboxamide], the “binding rate for G12C K-Ras4B (1-169)” value was “B (a binding rate of 60% or more and less than 80% is rated “B,”)”.
With C=CC(=O)N1C[C@H](NC(=O)c2c(C)nc(CNc3n[nH]c4cc(Cl)c(C(C)(C)C)cc34)n2C)[C@H](OC)C1 [Example 61, N-((3S,4R)-1-acryloyl-4-methoxypyrrolidin-3-yl)-2-(((5-(tert-butyl)-6-chloro-1H-indazol-3-yl)amino)methyl)-1,4-dimethyl-1H-imidazole-5-carboxamide] the “binding rate for G12C K-Ras4B (1-169)” value was “B (a binding rate of 60% or more and less than 80% is rated “B,”)”.
For C=CC(=O)N1CC(NC(=O)c2c(C(F)F)nc(CNc3n[nH]c4cc(Cl)c(C(C)(C)C)cc34)n2C2CCN(C(C)=O)C2)C1 (centres unmarked) [Example 96, 1-(1-Acetylpyrrolidin-3-yl)-N-(1-acryloylazetidin-3-yl)-2-(((5-(tert-butyl)-6-chloro-1H-indazol-3-yl)amino)methyl)-4-(difluoromethyl)-1H-imidazole-5-carboxamide], the “binding rate for G12C K-Ras4B (1-169)” value was “A (a binding rate of 80% or more is rated “A,”)”.
In the case of C=CC(=O)N1C[C@@H](CO)[C@@H](NC(=O)c2c(C)nc(CNc3n[nH]c4cc(Cl)c(C(C)(C)C)cc34)n2C)C1 [Example 58, N-((3R,4R)-1-acryloyl-4-(hydroxymethyl)pyrrolidin-3-yl)-2-(((5-(tert-butyl)-6-chloro-1H-indazol-3-yl)amino)methyl)-1,4-dimethyl-1H-imidazole-5-carboxamide], the “binding rate for G12C K-Ras4B (1-169)” value is reported as “B (a binding rate of 60% or more and less than 80% is rated “B,”)”.
For C=CC(=O)N1CC(NC(=O)c2c(-c3ccccc3)nc(CNc3n[nH]c4cc(Cl)c(C(C)(C)C)cc34)n2C)C1 [Reference Example 3, N-(1-acryloylazetidin-3-yl)-2-(((5-(tert-butyl)-6-chloro-1H-indazol-3-yl)amino)methyl)-1-methyl-4-phenyl-1H-imidazole-5-carboxamide, reference compound], the “binding rate for G12C K-Ras4B (1-169)” value was “E (a binding rate of less than 20% is rated “E.”)”.
With C=CC(=O)N1CC(NC(=O)c2c(Cl)nc(CNc3n[nH]c4cc(Cl)c(C(C)(C)C)cc34)n2C2CC=CC2)C1 [Example 98, N-(1-acryloylazetidin-3-yl)-2-(((5-(tert-butyl)-6-chloro-1H-indazol-3-yl)amino)methyl)-4-chloro-1-(cyclopent-3-en-1-yl)-1H-imidazole-5-carboxamide] the “binding rate for G12C K-Ras4B (1-169)” value was “A (a binding rate of 80% or more is rated “A,”)”.
In the case of C=CC(=O)N1CC(NC(=O)c2c(C)nc(CNc3n[nH]c4cc(Cl)c(C(C)(C)C)cc34)n2C2CCCC2)C1 [Example 17, N-(1-acryloylazetidin-3-yl)-2-(((5-(tert-butyl)-6-chloro-1H-indazol-3-yl)amino)methyl)-1-cyclopentyl-4-methyl-1H-imidazole-5-carboxamide], the “binding rate for G12C K-Ras4B (1-169)” value is reported as “B (a binding rate of 60% or more and less than 80% is rated “B,”)”.
C=CC(=O)N1CC(NC(=O)c2c(C)nc(CNc3n[nH]c4cc(Cl)c(C(C)(C)C)cc34)n2CCC)C1 [Example 19, N-(1-acryloylazetidin-3-yl)-2-(((5-(tert-butyl)-6-chloro-1H-indazol-3-yl)amino)methyl)-4-methyl-1-propyl-1H-imidazole-5-carboxamide] was tested, and the “binding rate for G12C K-Ras4B (1-169)” value was “A (a binding rate of 80% or more is rated “A,”)”.
With C=CC(=O)N1CC(NC(=O)c2c(F)nc(CNc3n[nH]c4cc(Cl)c(C(C)(C)C)cc34)n2C)C1 [Example 30, N-(1-acryloylazetidin-3-yl)-2-(((5-(tert-butyl)-6-chloro-1H-indazol-3-yl)amino)methyl)-4-fluoro-1-methyl-1H-imidazole-5-carboxamide] the “binding rate for G12C K-Ras4B (1-169)” value was “C (a binding rate of 40% or more and less than 60% is rated “C,”)”.
In the case of C=CC(=O)N1CC(NC(=O)c2csc(CNc3n[nH]c4cc(Cl)c(C(C)(C)C)cc34)n2)C1 [Example 7, N-(1-acryloylazetidin-3-yl)-2-(((5-(tert-butyl)-6-chloro-1H-indazol-3-yl)amino)methyl)thiazole-4-carboxamide], the “binding rate for G12C K-Ras4B (1-169)” value is reported as “D (a binding rate of 20% or more and less than 40% is rated “D,”)”.
In the case of C=CC(=O)N1CCC(NC(=O)c2c(C)nc(CNc3n[nH]c4cc(Cl)c(C(C)(C)C)cc34)n2C)CC1 [Example 47, N-(1-acryloylpiperidin-4-yl)-2-(((5-(tert-butyl)-6-chloro-1H-indazol-3-yl)amino)methyl)-1,4-dimethyl-1H-imidazole-5-carboxamide], the “binding rate for G12C K-Ras4B (1-169)” value is reported as “C (a binding rate of 40% or more and less than 60% is rated “C,”)”.
For C=CC(=O)N1C[C@@H](O)[C@@H](NC(=O)c2c(C)nc(CNc3n[nH]c4cc(Cl)c(C(C)(C)C)cc34)n2C)C1 [Example 56, N-((3S,4R)-1-acryloyl-4-hydroxypyrrolidin-3-yl)-2-(((5-(tert-butyl)-6-chloro-1H-indazol-3-yl)amino)methyl)-1,4-dimethyl-1H-imidazole-5-carboxamide], the “binding rate for G12C K-Ras4B (1-169)” value was “C (a binding rate of 40% or more and less than 60% is rated “C,”)”.
